Assay results published in US6991794B1, “Progenitor cell preservation factors and methods for and products of their use” (ImClone Systems Incorporated, priority 1997, dated 2006).

Columns and labels:
[1] = single dose 150 mg/kg (Lerner and Harrison); cited from earlier work
[2] = murine 5-FU chemoprotection model; conditions: 150 mg/kg intraperitoneally
Experimental: Administration of a second dose of 5-FU (also at 150 mg/kg) 3-7 days after the initial dose killed those stem cells and progenitors recruited into S-phase in response to the first treatment of 5-FU (Lerner and Harrison, supra).
Since FRIL and cytokines act on progenitors in the same concentration range (ng/ml), this pretreatment dose regimen was used to test whether Dl-FRIL can protect mice from 5-FU administered at 2 intervals in the first week: 5-FU (150 mg/kg) was injected at day 0 and then a second dose (also at 150 mg/kg) was injected either on day 3 (d0/3 dose interval) or day 5 (d0/5 dose interval).
Weight-matched BALB/c mice (10 mice/group) were injected intravenously with either with 0.2 mL of Dl-FRIL (500 mg/mL) or 0.2 mL of HBSS daily for 4 days. Two hours after the final treatment of Dl-FRIL, mice were injected intraperitoneally with 5-FU (150 mg/kg). Groups of mice received a second dose of 5-FU (150 mg/kg) at either day 3 or day 5.

[3] = target: T1, Dl-FRIL (Lablab purpureus, UniProt Q9ZTA9); conditions: Mo et al., Glycobiology 1999; cited from earlier work
T1 sequence (Q9ZTA9 9-272): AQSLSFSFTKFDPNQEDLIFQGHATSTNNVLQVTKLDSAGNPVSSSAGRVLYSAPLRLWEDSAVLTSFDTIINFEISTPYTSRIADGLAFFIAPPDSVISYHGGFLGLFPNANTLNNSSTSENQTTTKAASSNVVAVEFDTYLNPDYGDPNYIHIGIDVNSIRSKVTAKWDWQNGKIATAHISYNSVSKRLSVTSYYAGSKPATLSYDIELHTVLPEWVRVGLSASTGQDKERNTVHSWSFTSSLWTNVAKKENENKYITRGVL
T1 sequence (Q9ZTA9 125-272 limits assumed): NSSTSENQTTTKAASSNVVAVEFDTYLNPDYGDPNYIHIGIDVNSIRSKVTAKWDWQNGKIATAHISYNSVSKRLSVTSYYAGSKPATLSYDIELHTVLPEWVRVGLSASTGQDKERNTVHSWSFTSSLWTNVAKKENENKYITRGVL

[4] = tested on: untransfected 3T3 cells; assay: untransfected parent 3T3 control cells (XTT); type: cell-based; conditions: Example 5 serum-free conditions
Experimental: Specifically, 3T3 cells cultured in tissue culture plates (Becton Dickinson Labware, Lincoln Park, N.J.) were removed from the plates by washing cells twice in Hank's buffered saline solution (HBSS; Gibco Laboratories, Grand Island, N.Y.). Non-enzymatic cell dissociation buffer (Gibco) was added for 15 minutes at room temperature. The resulting cells were washed in medium. FLT3 3T3 cells were cultured at a final concentration of 3,000 cells per well in a volume of 100 μL of serum-defined medium containing […] rhIL1-α, 10% AIMV (Gibco, Grand Island, N.Y.) and 90% Dulbecco's modification of Eagle's medium (DMEM; Gibco) in 96 well plates. […] Proliferation and cell survival was quantitated by addition of XTT (2, 3-bis[Methoxy-4-nitro-5sulfophenyl]-2H-tetrazolium-5 carboxanilide inner salt) (Diagnostic Chemicals Ltd, Charlottetown, Prince Edward Island, Canada), which is a […] cleaved by actively respiring cells (Roehm et al., J. Immunol. Methods 142: 257-265, 1991). Proliferation and cell survival was quantitated spectrophotometrically using a Vmax kinetic plate reader (Molecular Devices Corp., Mountain View, Calif.), and recorded as either relative activity (units/mL) or as specific activity (units/mg). One unit of biological activity was defined as the reciprocal dilution at which half-maximal stimulation of cells is detected. […]

[5] = target: T2, full-length human Fms receptor (Homo sapiens, UniProt P07333); assay: Fms 3T3 biological screening assay (XTT); type: cell-based
T2 construct: The human FMS 3T3 cell line is a 3T3 cell line transfected with the full-length human Fms receptor; expressed in transfected cells; host or cells: NIH 3T3 (FMS 3T3 cell line, provided by Dr. Charles Sherr)
Description: A biological screening assay to search for novel stimulators of the Flt3 receptor was developed using NIH 3T3 cells transfected with expression vectors containing cDNA of murine and human Flt3 and the related Fms receptor. The mFlt3/Fms 3T3 cell line is a 3T3 cell line transfected with nucleic acid encoding a fusion protein consisting of the murine extracellular domain of the Flt3 receptor fused to the transmembrane and intracellular domains of the human Fms (provided by Dr. Ihor Lemischka, Princeton University, Princeton, N.J.). The Stk 3T3 cell line is a 3T3 cell line transfected with the full-length human Flt3 receptor (provided by Dr. Donald Small, Johns Hopkins University, Baltimore, Md.). […]
To create factor-dependence for receptor-transfected 3T3 cells, growth conditions were compromised to permit only ligands to rescue cells from death. […] Viable cells were quantitated after 3-5 days by XTT (2,3-bis[Methoxy-4-nitro-5sulfophenyl]-2H-tetrazolium-5 carboxanilide inner salt) (Sigma, St. Louis, Mo.) (Roehm et al., supra). Relative activity (units/ml) and specific activity (units/mg) are defined as the reciprocal dilution at which half-maximal stimulation of cells was detected. […]

[6] = target: T3, murine extracellular domain of the Flt3 receptor fused to the transmembrane and intracellular domains of the human Fms (UniProt P07333+Q00342, A795S/A899S/C564L/C654D/C793H/C831G/D601N/D652H/D673E/D898N/DEL545-556/DEL576-597/DEL711-780/E609N/E612Q/E649S/E789R/E803A/E806A/E865D/F571P/F692T/F788L/F807S/G637D/G866C/H565Y/H671Q/H824N/I560L/I563L/I633L/I640L/I867V/I870V/INS558VACMSIMALLLL/INS573QVRWKII/INS599GNSYTFIDPTQLP/INS709AMLGPSLSPGQDPEGGVDYKNIHLEKKYVRRDSGFSSQGVDTYVEMRPVSTSSNDSFSEQDLD/K569Q/K650T/K800Q/K826H/K871Q/L602E/L684H/L690V/L783G/L815V/L840M/L863I/M626V/M665I/N627E/N784R/N900K/P896L/Q570K/Q641K/R572K/R624K/R708A/R848K/S619A/S634G/S639V/S653A/S685G/S706R/S809N/S841N/S844N/T636E/T667S/T787E/V561L/V616T/V638A/V785P/V811I/V822L/V828A/V846I/V889L/Y631F/Y689L/Y703F/Y796S); assay: mFlt3/Fms 3T3 biological screening assay (XTT); type: cell-based
T3 construct: consisting of the murine extracellular domain of the Flt3 receptor fused to the transmembrane and intracellular domains of the human Fms; expressed in transfected cells; host or cells: NIH 3T3 (mFlt3/Fms 3T3 cell line, provided by Dr. Ihor Lemischka)
T3 sequence (Q00342+P07333 with tags, fused parts or gaps Q00342:DEL545-556/Q00342:INS558VACMSIMALLLL/Q00342:I560L/Q00342:V561L/Q00342:I563L/Q00342:C564L/Q00342:H565Y/Q00342:K569Q/Q00342:Q570K/Q00342:F571P/Q00342:R572K/Q00342:INS573QVRWKII/Q00342:DEL576-597/Q00342:INS599GNSYTFIDPTQLP/Q00342:D601N/Q00342:L602E/Q00342:E609N/Q00342:E612Q/Q00342:V616T/Q00342:S619A/Q00342:R624K/Q00342:M626V/Q00342:N627E/Q00342:Y631F/Q00342:I633L/Q00342:S634G/Q00342:T636E/Q00342:G637D/Q00342:V638A/Q00342:S639V/Q00342:I640L/Q00342:Q641K/Q00342:E649S/Q00342:K650T/Q00342:D652H/Q00342:S653A/Q00342:C654D/Q00342:M665I/Q00342:T667S/Q00342:H671Q/Q00342:D673E/Q00342:L684H/Q00342:S685G/Q00342:Y689L/Q00342:L690V/Q00342:F692T/Q00342:Y703F/Q00342:S706R/Q00342:R708A/Q00342:INS709AMLGPSLSPGQDPEGGVDYKNIHLEKKYVRRDSGFSSQGVDTYVEMRPVSTSSNDSFSEQDLD/Q00342:DEL711-780/Q00342:L783G/Q00342:N784R/Q00342:V785P/Q00342:T787E/Q00342:F788L/Q00342:E789R/Q00342:C793H/Q00342:A795S/Q00342:Y796S/Q00342:K800Q/Q00342:E803A/Q00342:E806A/Q00342:F807S/Q00342:S809N/Q00342:V811I/Q00342:L815V/Q00342:V822L/Q00342:H824N/Q00342:K826H/Q00342:V828A/Q00342:C831G/Q00342:L840M/Q00342:S841N/Q00342:S844N/Q00342:V846I/Q00342:R848K/Q00342:L863I/Q00342:E865D/Q00342:G866C/Q00342:I867V/Q00342:I870V/Q00342:K871Q/Q00342:V889L/Q00342:P896L/Q00342:D898N/Q00342:A899S/Q00342:N900K): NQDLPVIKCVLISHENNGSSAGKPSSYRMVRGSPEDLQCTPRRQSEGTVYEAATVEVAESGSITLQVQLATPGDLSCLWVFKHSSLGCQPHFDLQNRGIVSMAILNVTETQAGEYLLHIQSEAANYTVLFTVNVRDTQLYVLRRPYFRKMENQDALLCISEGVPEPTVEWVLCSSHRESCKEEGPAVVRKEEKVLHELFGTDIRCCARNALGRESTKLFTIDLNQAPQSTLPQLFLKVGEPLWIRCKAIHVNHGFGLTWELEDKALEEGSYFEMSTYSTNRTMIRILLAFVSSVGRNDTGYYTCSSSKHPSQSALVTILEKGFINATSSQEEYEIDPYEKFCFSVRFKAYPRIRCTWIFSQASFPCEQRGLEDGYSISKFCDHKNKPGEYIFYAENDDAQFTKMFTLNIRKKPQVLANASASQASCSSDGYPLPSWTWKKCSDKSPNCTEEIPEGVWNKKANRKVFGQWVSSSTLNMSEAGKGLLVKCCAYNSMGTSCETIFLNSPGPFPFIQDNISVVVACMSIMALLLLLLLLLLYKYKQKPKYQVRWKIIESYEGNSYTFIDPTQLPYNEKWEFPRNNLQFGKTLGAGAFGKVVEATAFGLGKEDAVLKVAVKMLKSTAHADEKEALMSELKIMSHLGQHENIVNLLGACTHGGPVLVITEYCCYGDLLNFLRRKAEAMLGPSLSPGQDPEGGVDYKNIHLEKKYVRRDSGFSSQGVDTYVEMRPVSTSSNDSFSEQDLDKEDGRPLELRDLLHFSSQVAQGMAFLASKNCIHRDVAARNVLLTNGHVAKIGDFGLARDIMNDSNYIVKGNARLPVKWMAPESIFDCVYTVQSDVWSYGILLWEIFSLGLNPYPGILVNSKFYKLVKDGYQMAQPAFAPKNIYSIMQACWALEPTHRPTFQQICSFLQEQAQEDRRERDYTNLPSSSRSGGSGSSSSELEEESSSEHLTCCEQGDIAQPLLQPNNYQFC
Description: A biological screening assay to search for novel stimulators of the Flt3 receptor was developed using NIH 3T3 cells transfected with expression vectors containing cDNA of murine and human Flt3 and the related Fms receptor. The mFlt3/Fms 3T3 cell line is a 3T3 cell line transfected with nucleic acid encoding a fusion protein consisting of the murine extracellular domain of the Flt3 receptor fused to the transmembrane and intracellular domains of the human Fms (provided by Dr. Ihor Lemischka, Princeton University, Princeton, N.J.). The Stk 3T3 cell line is a 3T3 cell line transfected with the full-length human Flt3 receptor (provided by Dr. Donald Small, Johns Hopkins University, Baltimore, Md.). The human FMS 3T3 cell line is a 3T3 cell line transfected with the full-length human Fms receptor (provided by Dr. Charles Sherr, Saint Jude Children's Research Hospital, Memphis, Tenn. Parent 3T3 cells were purchased from American Type Culture Collection (“ATCC”; Manassas, Va.). Receptor-transfected cells contained Neo resistance genes and were maintained in medium containing 750 µg/ml of G418 (Life Technologies, Rockville, Md.).
To create factor-dependence for receptor-transfected 3T3 cells, growth conditions were compromised to permit only ligands to rescue cells from death. To do this, 3T3 cell lines were assayed in 96 well plates (Becton Dickinson Labware, Lincoln Park, N.J.) containing 3,000 cells in 100 μL of serum-free medium consisting of 10% AIMV (Life Technologies) and 90% DMEM. In each experiment, samples were serially diluted two-fold across rows starting at a 1:10 dilution. Viable cells were quantitated after 3-5 days by XTT (2,3-bis[Methoxy-4-nitro-5sulfophenyl]-2H-tetrazolium-5 carboxanilide inner salt) (Sigma, St. Louis, Mo.) (Roehm et al., supra). Relative activity (units/ml) and specific activity (units/mg) are defined as the reciprocal dilution at which half-maximal stimulation of cells was detected.

T2 sequence (P07333 20-972): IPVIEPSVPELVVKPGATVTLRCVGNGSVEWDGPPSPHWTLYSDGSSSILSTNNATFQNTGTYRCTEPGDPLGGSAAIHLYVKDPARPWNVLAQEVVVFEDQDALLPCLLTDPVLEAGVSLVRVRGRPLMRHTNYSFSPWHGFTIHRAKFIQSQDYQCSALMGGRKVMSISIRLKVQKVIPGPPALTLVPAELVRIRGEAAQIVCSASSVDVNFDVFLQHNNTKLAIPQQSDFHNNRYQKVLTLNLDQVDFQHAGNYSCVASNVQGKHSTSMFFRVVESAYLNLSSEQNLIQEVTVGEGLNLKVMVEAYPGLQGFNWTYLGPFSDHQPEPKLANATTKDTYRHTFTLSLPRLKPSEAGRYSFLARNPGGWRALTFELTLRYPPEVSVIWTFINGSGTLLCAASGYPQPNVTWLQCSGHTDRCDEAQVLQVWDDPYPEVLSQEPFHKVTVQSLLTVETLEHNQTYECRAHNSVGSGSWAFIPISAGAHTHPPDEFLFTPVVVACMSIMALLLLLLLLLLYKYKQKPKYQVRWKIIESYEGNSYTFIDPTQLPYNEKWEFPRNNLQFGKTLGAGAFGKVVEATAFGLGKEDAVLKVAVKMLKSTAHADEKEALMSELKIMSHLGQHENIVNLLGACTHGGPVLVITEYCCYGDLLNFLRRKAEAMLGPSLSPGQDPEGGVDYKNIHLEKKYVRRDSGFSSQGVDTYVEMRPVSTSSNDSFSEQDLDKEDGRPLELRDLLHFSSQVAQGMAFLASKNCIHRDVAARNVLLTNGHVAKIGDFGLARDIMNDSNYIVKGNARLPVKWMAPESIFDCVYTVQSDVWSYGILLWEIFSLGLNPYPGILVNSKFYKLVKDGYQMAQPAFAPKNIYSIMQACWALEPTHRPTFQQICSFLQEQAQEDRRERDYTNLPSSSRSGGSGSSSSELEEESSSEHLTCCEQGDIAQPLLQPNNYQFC

In the case of `O=c1[nH]cc(F)c(=O)[nH]1` [5-FU, 5-fluorouracil], the “reduction of bone marrow cellularity” value [1] is given as greater than 90% and the “deaths from a single dose” value [2] is given as “No mice died”.

In the case of `OC[C@H]1O[C@H](O[C@H]2O[C@H](CO)[C@@H](O)[C@H](O)[C@H]2O)[C@H](O)[C@@H](O)[C@@H]1O` [α,α-trehalose], the “potency relative to mannose” value [3] is listed as 3.6 fold.

B1: M-CSF: Recombinant human M-CSF, ligand of the Fms receptor (protein)
chain: EEVSEYCSHMIGSGHLQSLQRLIDSQMETSCQITFEFVDQEQLKDPVCYLKKAFLLVQDIMEDTMRFRDNTPNAIAIVQLQELSLRLKSCFTKDYEEHDKACVRTFYETPLQLLEKVKNVFNETKNLLDKDWNIFSKNCNNSFAECSSQDVVTKPDCN
With B1 the “response of parent untransfected 3T3 cells” value [4] was “Neither the mFlt3/Fms 3T3 cells nor the parent untransfected 3T3 cells responded”, the “response of Fms 3T3 cells” value [5] was “responded to M-CSF in a dose-responsive manner” and the “response of mFlt3/Fms 3T3 cells” value [6] was “Neither the mFlt3/Fms 3T3 cells nor the parent untransfected 3T3 cells responded”.
